The record followed here is patent US20240317748A1, “CARBONYL SUBSTITUTED DIAZASPIRO COMPOUNDS AND ITS USE” (BIONOVA PHARMACEUTICALS (SHANGHAI) LIMITED, priority 2021, published 2024).

The subject of one data set is OCI-AML3 cells. The experiment in a line: Cell proliferation assay (CellTiter-Glo), OCI-AML3. The format is cell-based, human. To be noted: OCI-AML3 (NPM1c mutation), 5 days incubation, read-out: Cell antiproliferation assay OCI-AML3 IC50. As for the experimental part:
(§1) The antiproliferative activity of test compounds was assessed in human leukemia cell lines. The cell line MV4-11, MOLM13 and OCI-AML3, which expresses the MLL fusion protein MLL-AF4, MLL-AF9 and carry the NPM1c gene mutation, respectively, were tested. HL-60 was used as a control cell line containing two MLL wildtype alleles in order to exclude compounds that display general cytotoxic effect. MV4-11 cells were cultured in IMDM supplemented with 10% FBS, MOLM13 and OCI-AML3 cells were cultured in RPMI1640 supplemented with 20% FBS, and HL-60 cells were cultured in IMDM supplemented with 20% FBS. Corresponding cells (MV4-11, MOLM13, OCI-AML3 or HL-60 cell line) were seeded in 100 uL medium per well in 96-well plate (white wall with clear bottom, tissue culture treated, Corning, Cat. No. CLS3903; Lot.No. 30419025). Plates were placed in the CO2 incubator overnight. Compounds solution (2 mM starting, 4-fold serial dilution) were prepared and added to the wells containing 100 μL of the culture medium with HPD300 according to the plate map and centrifuge at 1000 rpm for 1 minutes (200-fold dilution totally). MV4-11, MOLM13, OCI-AML3 and HL-60 cells were incubated with the compounds for 4, 12, 5 and 4 days, respectively, under 5% CO2 at 37° C., respectively. 100 μL of CellTiter-Glo reagent (Promega, Cat. No. G7573, Lot. No. 0000416710) was added to the assay plate by Multidrop Combi instrument, contents were mixed for 10 minutes on an orbital shaker to induce cell lysis. After incubation at room temperature for 10 mins, clear bottom with white back seal was pasted and luminescence with Envision was read.
A general note: In ATP-based viability assays light output follows the ATP content of the culture.

A further data set addresses T1, Menin-MLL1 (Homo sapiens, UniProt O00255).
T1 construct: Menin (2-610) isform2; purchased ChemPartner 2020111101
T1 sequence (O00255 2-610): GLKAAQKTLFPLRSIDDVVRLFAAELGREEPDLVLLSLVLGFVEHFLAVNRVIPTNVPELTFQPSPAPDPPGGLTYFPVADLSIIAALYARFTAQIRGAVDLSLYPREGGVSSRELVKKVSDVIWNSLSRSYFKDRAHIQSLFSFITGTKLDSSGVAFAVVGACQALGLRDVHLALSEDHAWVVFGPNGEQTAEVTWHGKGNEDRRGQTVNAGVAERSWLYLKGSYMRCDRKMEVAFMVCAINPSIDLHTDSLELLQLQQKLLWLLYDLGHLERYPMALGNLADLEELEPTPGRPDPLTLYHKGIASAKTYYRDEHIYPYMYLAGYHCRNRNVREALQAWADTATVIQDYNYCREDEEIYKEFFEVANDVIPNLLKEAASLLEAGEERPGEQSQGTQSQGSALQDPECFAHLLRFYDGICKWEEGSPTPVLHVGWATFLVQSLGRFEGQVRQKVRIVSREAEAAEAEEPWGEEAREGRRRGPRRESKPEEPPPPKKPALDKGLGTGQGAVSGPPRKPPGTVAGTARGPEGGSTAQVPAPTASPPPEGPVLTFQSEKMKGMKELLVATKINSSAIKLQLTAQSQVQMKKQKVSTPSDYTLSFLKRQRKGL
The experiment in a line: Menin-MLL1 inhibition assay (fluorescence polarization, Menin protein + FAM-MLL peptide). The format is binding. Particulars: Menin (2-610) isoform 2, FAM-labelled MLL peptide, mP readout; read-out: Biochemical assay Menin-MLL1 IC50.

Another data set concerns MOLM13 cells. The experiment in a line: Cell proliferation assay (CellTiter-Glo), MOLM13. Particulars: MOLM13 (MLL-AF9), 12 days incubation, read-out: Cell antiproliferation assay MOLM13 IC50. The format is cell-based, human. As for the experimental part:
as §1

A further data set deals with MV-4-11 cells. The experiment in a line: Cell proliferation assay (CellTiter-Glo), MV-4-11. The format is cell-based, human. Particulars: MV-4-11 (MLL-AF4), 4 days incubation, read-out: Cell antiproliferation assay MV-4-11 IC50. In outline: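 Antiproliferative activity by CellTiter-Glo luminescence; MV4-11 (MLL-AF4) in IMDM/10% FBS, 4 days; MOLM13 (MLL-AF9) in RPMI1640/20% FBS, 12 days; OCI-AML3 (NPM1c) in RPMI1640/20% FBS, 5 days; HL-60 (MLL wild-type control) in IMDM/20% FBS, 4 days. Compounds 4-fold serial from 2 mM stock, 200-fold final dilution; 37 °C, 5% CO2.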

The test system of a further data set is HL-60 cells. The experiment in a line: Cell proliferation assay (CellTiter-Glo), HL-60 control line. The format is cell-based, human. To be noted: 4 days incubation; for IC50: HL-60 control line (MLL wildtype), read-out: Cell antiproliferation assay HL-60 IC50; for inhibition at 10 µM: read-out: HL-60 (Pct of inhibition at 10 μM). As for the experimental part: as §1

In the next data set the target is T2, hERG potassium channel (Homo sapiens, UniProt Q12809).
T2 construct: expressed in transfected cells; host or cells: CHO-hERG cells
Description: hERG inhibition study (Qpatch, CHO-hERG cells). The format is cell-based. To be noted: highest test concentration 40 μM. On the procedure:
The inhibition effects of the test compounds on hERG were carried out in CHO-hERG cells (cell density: 21.5×10˜6/mL). 10 μL compound mother liquor was added to 20 μL DMSO solution, and then continuously diluted to 6 concentrations by 3-fold. The compound solution (4 uL) of six different concentrations were added to the extracellular solution (996 uL) and diluted to the final concentration to be tested (250-fold dilution totally). The highest test concentration was 40.00 μM, followed by […], 13.3, 4.4, 1.48, 0.49 and 0.16 μM. […] The high impedance sealing of single cell and the formation of whole cell model were all completed automatically by Qpatch instrument.
For orientation: Block of hERG is tested as a sign of cardiac risk.

A short description of data set [1]: Liver microsome stability study. The format is in vitro ADME. To be noted: human liver microsomes 0.5 mg/mL, 1 μM compound, NADPH, 37° C.; for half-life at 1 μM: read-out: Human liver microsome T1/2. As for the experimental part: Studies were carried out in liver microsomes (Corning, 0.5 mg/mL). Stock solutions were prepared at 10 mM in DMSO for the test compounds. Aliquots of the stock solutions were diluted to 0.5 mM with acetonitrile, and then further diluted upon the addition of liver microsomes/buffer to 1.5 μM. An aliquot of 30 μL of 1.5 μM solutions was mixed with 15 μL of 6 mM NADPH and the final concentration of NADPH was 2 mM, which had been pre-warmed to 37° C. Test compounds and Ketanserin final concentrations were 1 μM. The plates were kept in a 37° C. water bath for the duration of the experiment. At each time point (0, 5, 15, 30, 45 minutes), 135 μL of acetonitrile was added into corresponding wells. After the final time point was quenched by acetonitrile, the assay plates were shaken at the vibrator (IKA, MTS 2/4) for 10 min (600 rpm/min) and then centrifuged at 5,594 g for 15 min (Thermo Multifuge×3R). Aliquots of the supernatant were taken, diluted 1:1 into distilled water, and analyzed by LC-MS/MS. The peak area response ratio to internal standard (PARR) of the compounds at 5, 15, 30, 45 minutes was compared to the PARR at time 0 to determine the percent of test compound remaining at each time point. Half-lives were calculated using Excel software, fitting to a single-phase exponential decay equation.
A general note: Liver microsomes are vesicles of endoplasmic reticulum, rich in cytochrome P450 enzymes.

Setting [2] is: Homo sapiens, 96 h, HL-60 control line, 10 μM.

Like-named read-outs stand apart in the source and are kept apart here. Bounds are passed on as bounds.

T2 sequence (Q12809 whole entry): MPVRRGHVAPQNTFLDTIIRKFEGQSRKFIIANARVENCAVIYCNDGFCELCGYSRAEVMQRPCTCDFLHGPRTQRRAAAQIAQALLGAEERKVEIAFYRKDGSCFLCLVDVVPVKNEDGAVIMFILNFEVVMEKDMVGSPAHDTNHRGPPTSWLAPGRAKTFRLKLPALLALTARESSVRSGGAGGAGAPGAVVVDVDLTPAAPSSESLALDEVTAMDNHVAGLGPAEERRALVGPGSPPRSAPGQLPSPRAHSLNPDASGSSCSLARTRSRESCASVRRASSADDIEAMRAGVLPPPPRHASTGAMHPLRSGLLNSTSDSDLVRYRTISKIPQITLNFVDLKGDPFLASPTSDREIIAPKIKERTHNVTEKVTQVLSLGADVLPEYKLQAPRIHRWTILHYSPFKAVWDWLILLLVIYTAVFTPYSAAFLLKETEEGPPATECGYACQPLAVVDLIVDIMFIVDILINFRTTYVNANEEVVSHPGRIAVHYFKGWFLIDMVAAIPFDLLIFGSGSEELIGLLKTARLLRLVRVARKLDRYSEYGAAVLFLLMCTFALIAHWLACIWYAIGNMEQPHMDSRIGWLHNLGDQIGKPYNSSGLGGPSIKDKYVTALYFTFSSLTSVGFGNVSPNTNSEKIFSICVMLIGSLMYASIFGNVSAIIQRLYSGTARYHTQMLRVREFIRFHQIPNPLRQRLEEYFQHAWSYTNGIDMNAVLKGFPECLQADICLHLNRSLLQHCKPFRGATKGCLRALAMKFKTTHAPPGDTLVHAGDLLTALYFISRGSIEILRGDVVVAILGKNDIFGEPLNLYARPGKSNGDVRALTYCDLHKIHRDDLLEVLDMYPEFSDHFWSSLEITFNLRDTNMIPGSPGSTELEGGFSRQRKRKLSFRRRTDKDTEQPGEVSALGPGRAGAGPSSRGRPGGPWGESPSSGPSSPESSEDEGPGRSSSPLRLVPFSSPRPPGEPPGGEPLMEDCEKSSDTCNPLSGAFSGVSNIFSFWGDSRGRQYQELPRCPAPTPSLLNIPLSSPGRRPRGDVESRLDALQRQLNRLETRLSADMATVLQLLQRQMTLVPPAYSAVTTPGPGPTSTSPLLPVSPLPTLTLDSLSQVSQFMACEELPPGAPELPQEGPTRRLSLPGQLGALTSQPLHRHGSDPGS

Regarding `CCN(C(=O)c1cc(F)ccc1Oc1cncnc1N1CC2(CCN(C(=O)[C@@H]3C[C@@H](F)CN3)CC2)C1)C(C)C` [Example 2, N-ethyl-5-fluoro-2-[(4-{7-[(2S,4R)-4-fluoropyrrolidine-2-carbonyl]-2,7-diazaspiro[3.5]nonan-2-yl}pyrimidin-5-yl)oxy]-N-(propan-2-yl)benzamide], the IC50 in the data set with OCI-AML3 cells (Homo sapiens, OCI-AML-3, 120 h) was 102 nM; at Menin-MLL1, 4.3 nM; with MOLM13 cells (Homo sapiens, MOLM-13, 288 h), 62.4 nM; in the data set on MV-4-11 cells (Homo sapiens, MV4-11, 96 h), 20.3 nM; with HL-60 cells (Homo sapiens, 96 h), over 10000 nM; against hERG potassium channel, over 40000 nM. Also, in the data set with HL-60 cells (setting [2]), the inhibition at 10 µM was -30.1%.
For the compound `CCN(C(=O)c1cc(F)ccc1Oc1nncnc1N1CC2(CCN(C(=O)[C@H]3NC[C@@H]4C[C@@H]43)CC2)C1)C(C)C` [Example 55], the IC50 with OCI-AML3 cells (Homo sapiens, OCI-AML-3, 120 h) is 186 nM; at Menin-MLL1, 2.3 nM; in the data set with MOLM13 cells (Homo sapiens, MOLM-13, 288 h) it was 61.9 nM; in the data set with MV-4-11 cells (Homo sapiens, MV4-11, 96 h), 14.2 nM; in the data set with HL-60 cells (Homo sapiens, 96 h), over 10000 nM; against hERG potassium channel, over 40000 nM. In data set [1], the half-life at 1 μM was 2.65 h. The inhibition at 10 µM in the data set with HL-60 cells (setting [2]) was -5%.
`CCN(C(=O)c1cc(F)ccc1Oc1nncnc1N1CC2(CCN(C(=O)[C@H]3NCC[C@@H]3C)CC2)C1)C(C)C` [Example 57]: the IC50 was 144 nM with OCI-AML3 cells (Homo sapiens, OCI-AML-3, 120 h); 5.3 nM on Menin-MLL1; 57.8 nM with MOLM13 cells (Homo sapiens, MOLM-13, 288 h); 13 nM in the data set with MV-4-11 cells (Homo sapiens, MV4-11, 96 h); over 10000 nM with HL-60 cells (Homo sapiens, 96 h); over 40000 nM against hERG potassium channel. In addition, the half-life at 1 μM in data set [1] was 1.75 h. Moreover, the inhibition at 10 µM with HL-60 cells (setting [2]) was -16.4%.
For `CCN(C(=O)c1cc(F)ccc1Oc1nncnc1N1CC2(CCN(C(=O)[C@@H]3C[C@@H](C)CN3)CC2)C1)C(C)C` [Example 60], the IC50 on Menin-MLL1 was 4.5 nM; with MV-4-11 cells (Homo sapiens, MV4-11, 96 h) it was 40.1 nM; in the data set with HL-60 cells (Homo sapiens, 96 h), over 10000 nM; against hERG potassium channel, over 40000 nM. In data set [1], the half-life at 1 μM was 1.98 h. In addition, the inhibition at 10 µM in the data set on HL-60 cells (setting [2]) was -8.4%.
As to `CCN(C(=O)c1cc(F)ccc1Oc1nncnc1N1CC2(CCN(C(=O)[C@H]3NC[C@@H]4CCC[C@@H]43)CC2)C1)C(C)C` [Example 74], the IC50 with OCI-AML3 cells (Homo sapiens, OCI-AML-3, 120 h) was 30.9 nM; on Menin-MLL1, 4.6 nM; with MOLM13 cells (Homo sapiens, MOLM-13, 288 h) it was 14.9 nM; in the data set with MV-4-11 cells (Homo sapiens, MV4-11, 96 h), 5.6 nM; with HL-60 cells (Homo sapiens, 96 h) it was over 10000 nM; at hERG potassium channel it was over 40000 nM. Besides, the inhibition at 10 µM with HL-60 cells (setting [2]) was found to be 7.9%.
On to `C[C@H]1CCN[C@@H]1C(=O)N1CCC2(CC1)CN(c1ncnnc1Oc1ccc(F)cc1-c1cncnc1C1CC1)C2` [Example 77], for which the IC50 on Menin-MLL1 is 3.4 nM; in the data set with MV-4-11 cells (Homo sapiens, MV4-11, 96 h), 17.3 nM; in the data set on HL-60 cells (Homo sapiens, 96 h), over 10000 nM; on hERG potassium channel it was over 40000 nM. Further, the half-life at 1 μM in data set [1] stood at 1.35 h. Besides, the inhibition at 10 µM in the data set on HL-60 cells (setting [2]) is 17.5%.
With `O=C([C@H]1NC[C@@H]2CCC[C@@H]21)N1CCC2(CC1)CN(c1ncnnc1Oc1ccc(F)cc1-c1cncnc1C1CC1)C2` [Example 82], the IC50 in the data set on OCI-AML3 cells (Homo sapiens, OCI-AML-3, 120 h) was 11.2 nM; at Menin-MLL1 it was 4.2 nM; in the data set with MOLM13 cells (Homo sapiens, MOLM-13, 288 h) it was 12.3 nM; with MV-4-11 cells (Homo sapiens, MV4-11, 96 h), 5.6 nM; in the data set with HL-60 cells (Homo sapiens, 96 h) it was over 10000 nM; against hERG potassium channel, 29400 nM. Moreover, in the data set with HL-60 cells (setting [2]), the inhibition at 10 µM came out at 22.3%.
As to `CCN(C(=O)c1cc(F)ccc1Oc1cncnc1N1CC2(CCN(C[C@H]3CC[C@H](NS(=O)(=O)CC)CC3)CC2)C1)C(C)C` [SNDX-5613, reference compound], the IC50 turned out to be 74.7 nM in the data set with OCI-AML3 cells; 3.4 nM at Menin-MLL1; 21.6 nM in the data set with MOLM13 cells; 8 nM in the data set with MV-4-11 cells; 7970 nM in the data set on HL-60 cells; 9600 nM against hERG potassium channel. For the same compound, in data set [1], the “Human liver microsome T1/2” value stood at 0.2 h. The “HL-60 (Pct of inhibition at 10 μM)” value in the data set with HL-60 cells (HL-60 control line, 10 μM) is 98.9%.

The term inhibition denotes the drop in the measured response relative to a control, in per cent.
